Measurements from PubChem BioAssay AID330 (DTP/NCI, 2004).
Several values for one entry are separate records, joined by “and”; a condition that tells them apart may be missing. Equal entries are not always repeated. Toxic doses and inconclusive results are not listed. Peptide text beside a SMILES is read from it.

Test system: P388 leukemia ip, CD2F1 mice, survival T/C
Assay: NCI In Vivo Anticancer Drug Screen. Data for tumor model P388 Leukemia (intraperitoneal) in CD2F1 (CDF1) mice
Conditions: endpoint: median survival time, higher = longer survival
Outline: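 Mice carrying the transplanted tumor received test compound or vehicle. Survival was recorded in each group, and the value is the treated-group measurement divided by that of the vehicle-treated control group.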

[1] = dose: 100.0 mg/kg/injection, schedule: Q04DX003 (ip), vehicle: saline with Tween-80
[2] = dose: 200.0 mg/kg/injection, schedule: Q04DX003 (ip), vehicle: saline with Tween-80
[3] = dose: 100.0 mg/kg/injection, schedule: Q01DX009 (ip), vehicle: Klucel (hydroxypropylcellulose) (HPC)
[4] = dose: 200.0 mg/kg/injection, schedule: Q01DX009 (ip), vehicle: Klucel (hydroxypropylcellulose) (HPC)
[5] = dose: 60.0 mg/kg/injection, schedule: Q01DX005 (ip), vehicle: Klucel (hydroxypropylcellulose) (HPC)

Q: With `CCCCNP(=O)(N1CC1C)N1CC1C` (stereo not given) as the molecule, how does the T/C (dose: 8.25 mg/kg/injection, schedule: Q01DX009 (ip), vehicle: saline) read?
A: 112 % of control

Q: And the T/C (dose: 12.5 mg/kg/injection, schedule: Q01DX009 (ip), vehicle: saline)?
A: 120 % of control

Q: What about the T/C (dose: 25.0 mg/kg/injection, schedule: Q01DX009 (ip), vehicle: saline) of the same molecule?
A: 109 % of control

Q: And the T/C (dose: 50.0 mg/kg/injection, schedule: Q01DX009 (ip), vehicle: saline)?
A: 86 % of control

Q: With `O=C(Oc1ccc[nH]c1=O)C1CCC1` as the molecule, how does the T/C (dose: 50.0 mg/kg/injection, schedule: Q01DX005 (ip), vehicle: Klucel (hydroxypropylcellulose) (HPC)) read?
A: 102 % of control and 92 % of control

Q: And the T/C (dose: 100.0 mg/kg/injection, schedule: Q01DX005 (ip), vehicle: Klucel (hydroxypropylcellulose) (HPC))?
A: 102 % of control and 90 % of control

Q: And the T/C (dose: 200.0 mg/kg/injection, schedule: Q01DX005 (ip), vehicle: Klucel (hydroxypropylcellulose) (HPC))?
A: 100 % of control and 91 % of control

Q: What about the T/C (dose: 400.0 mg/kg/injection, schedule: Q01DX005 (ip), vehicle: Klucel (hydroxypropylcellulose) (HPC)) of the same molecule?
A: 100 % of control and 103 % of control

Q: How did the T/C (dose: 3.12 mg/kg/injection, schedule: Q01DX009 (ip), vehicle: suspension in saline) turn out when `NC(CS)C(=O)O` (stereo not given) (tested in a mixture with another compound) was run?
A: 90 % of control

Q: And the T/C (dose: 6.25 mg/kg/injection, schedule: Q01DX009 (ip), vehicle: suspension in saline)?
A: 107 % of control

Q: What about the T/C (dose: 12.5 mg/kg/injection, schedule: Q01DX009 (ip), vehicle: suspension in saline) of the same molecule?
A: 110 % of control

Q: What about the T/C (dose: 25.0 mg/kg/injection, schedule: Q01DX009 (ip), vehicle: suspension in saline) of the same molecule?
A: 110 % of control

Q: With `CCCCCn1c(Cl)c(/C=N\Nc2cccc([N+](=O)[O-])c2)c2ccccc21` as the molecule, how does the T/C [1] read?
A: 100 % of control

Q: And the T/C [2]?
A: 91 % of control

Q: What about the T/C (dose: 400.0 mg/kg/injection, schedule: Q04DX003 (ip), vehicle: saline with Tween-80) of the same molecule?
A: 90 % of control

Q: Which T/C (dose: 50.0 mg/kg/injection, schedule: Q01DX009 (ip), vehicle: Klucel (hydroxypropylcellulose) (HPC)) does the source give for `O=S(=O)(Nc1cc2c3ccccc3ccc2c2ccccc12)c1ccccc1` here?
A: 96 % of control

Q: What about the T/C [3] of the same molecule?
A: 105 % of control

Q: What about the T/C [4] of the same molecule?
A: 100 % of control

Q: How did the T/C [3] turn out when `O=C(NC(=O)C(F)(F)C(F)(F)F)Nc1cccc(F)c1` was run?
A: 106 % of control

Q: What about the T/C [4] of the same molecule?
A: 100 % of control

Q: For `CCCCCN(CCCCC)CCCNc1c2c(nc3ccc(OC)cc13)CCCC2`, which T/C (dose: 3.12 mg/kg/injection, schedule: Q01DX005 (ip), vehicle: saline) is on record?
A: 94 % of control

Q: What about the T/C (dose: 6.25 mg/kg/injection, schedule: Q01DX005 (ip), vehicle: saline) of the same molecule?
A: 103 % of control

Q: What about the T/C (dose: 12.5 mg/kg/injection, schedule: Q01DX005 (ip), vehicle: saline) of the same molecule?
A: 99 % of control

Q: `O=P1(c2ccccc2)CCCCN1Cc1ccccc1` (stereo not given) was tested. Which T/C (dose: 100.0 mg/kg/injection, schedule: Q04DX003 (ip), vehicle: saline) did it give?
A: 108 % of control

Q: What about the T/C (dose: 200.0 mg/kg/injection, schedule: Q04DX003 (ip), vehicle: saline) of the same molecule?
A: 94 % of control

Q: What about the T/C (dose: 400.0 mg/kg/injection, schedule: Q04DX003 (ip), vehicle: saline) of the same molecule?
A: 116 % of control

Q: `NCCCCC(NC(=O)C(N)Cc1cnc[nH]1)C(=O)O` (stereo not drawn) (H-His-Lys-OH; configuration not given here) was tested. Which T/C (dose: 50.0 mg/kg/injection, schedule: Q01DX005 (ip), vehicle: saline) did it give?
A: 99 % of control

Q: What about the T/C (dose: 100.0 mg/kg/injection, schedule: Q01DX005 (ip), vehicle: saline) of the same molecule?
A: 108 % of control

Q: And the T/C (dose: 200.0 mg/kg/injection, schedule: Q01DX005 (ip), vehicle: saline)?
A: 100 % of control

Q: With `CCN(CC)CCNc1ccc(C)c2sc3ccc(N)cc3c(=O)c12` as the molecule, how does the T/C (dose: 12.5 mg/kg/injection, schedule: Q01DX009 (ip), vehicle: saline with Tween-80) read?
A: 120 % of control

Q: And the T/C (dose: 25.0 mg/kg/injection, schedule: Q01DX009 (ip), vehicle: saline with Tween-80)?
A: 103 % of control

Q: What about the T/C (dose: 50.0 mg/kg/injection, schedule: Q01DX009 (ip), vehicle: saline with Tween-80) of the same molecule?
A: 124 % of control

Q: What about the T/C (dose: 100.0 mg/kg/injection, schedule: Q01DX009 (ip), vehicle: saline with Tween-80) of the same molecule?
A: 118 % of control

Q: What does the source list for `CCCN(CCC)CCCCCO`?
A: T/C (dose: 50.0 mg/kg/injection, schedule: Q04DX003 (ip), vehicle: saline with Tween-80): 104 % of control; T/C [1]: 100 % of control; T/C [2]: 100 % of control

Q: Which results are given for `CCOc1c(N=Nc2ccccc2C)c(C)nn1C(=S)S`?
A: T/C [5]: 97 % of control; T/C (dose: 120.0 mg/kg/injection, schedule: Q01DX005 (ip), vehicle: Klucel (hydroxypropylcellulose) (HPC)): 95 % of control; T/C (dose: 240.0 mg/kg/injection, schedule: Q01DX005 (ip), vehicle: Klucel (hydroxypropylcellulose) (HPC)): 97 % of control

Q: Which results are given for `[Cl][Pt+2][Cl].[NH-]C1CCC1.[NH2-]`?
A: T/C (dose: 1.5 mg/kg/injection, schedule: Q01DX005 (ip), vehicle: saline): 155 % of control and 167 % of control; T/C (dose: 3.0 mg/kg/injection, schedule: Q01DX005 (ip), vehicle: saline): 155 % of control and 189 % of control and 190 % of control; T/C (dose: 12.0 mg/kg/injection, schedule: Q01DX005 (ip), vehicle: saline): 214 % of control

Q: Which T/C (dose: 15.0 mg/kg/injection, schedule: Q01DX005 (ip), vehicle: Klucel (hydroxypropylcellulose) (HPC)) does the source give for `CC(c1ccc(Cl)cc1)N(CCN(C)C)c1ccccn1` (stereo not given) here?
A: 103 % of control

Q: What about the T/C (dose: 30.0 mg/kg/injection, schedule: Q01DX005 (ip), vehicle: Klucel (hydroxypropylcellulose) (HPC)) of the same molecule?
A: 104 % of control

Q: What about the T/C [5] of the same molecule?
A: 111 % of control and 95 % of control
